In PMC11219871, “Epigenetic-based differentiation therapy for Acute Myeloid Leukemia” (Nature Communications, 2024):
Values joined by “and” are separate entries in the source; they are usually repeats but may differ in a detail not shown here. Identical values can stand only once.

Columns and labels:
[1] = target: T1, cytochrome P450 2C19 (Homo sapiens, UniProt P33261); assay: CYP inhibition in human liver microsomes; format: in vitro ADME; details: 10 µM
T1 construct: Corning Cat # 452117); tissue Corning 452117; host or cells: human liver microsomes
Experimental: (§1) This study was conducted at Wuxi (http://www.wuxi.com/). The inhibitory effects of CM-444 and CM-1758 on five human cytochrome P450s (1A2, 2C9, 2C19, 2D6 and 3A4) were evaluated in human liver microsomes. Test compounds (10 µM final concentration) or control compounds (α-naphthoflavone, sulfaphenazole, (+)-N-3-benzylnirvanol, quinidine, ketoconazole; 3-µM final concentration), and the corresponding substrates for each P450 isoform (1A2: phenacetin, 10-µM final concentration; 2C9: diclofenac, 5-µM final concentration; 2C19: S-mephenytoin, 30-µM final concentration, 2D6: dextromethorphan, 5-µM final concentration; 3A4: midazolam, 2-µM final concentration) were incubated with human liver microsomes (0.2-mg/mL final concentration; Corning Cat # 452117) and NADPH cofactor (1-mM final concentration, Chem-impex Cat # 00616) for 10 min at 37 °C. The reaction was terminated by adding 400 µL of cold stop solution (200 ng/mL tolbutamide and labetalol in acetonitrile), and the samples were centrifuged at 1520 g for 20 min. Next, 200-μL aliquots of supernatants were diluted with 100 μL of ultra-pure water and shaken for 10 min. The samples were analyzed by LC-MS/MS using an analyte/internal standard peak area ratio. Test compounds and positive controls were tested in duplicate. The percentage of inhibition was calculated as the ratio of substrate metabolite detected in treated and non-treated wells.

[2] = target: T2, cytochrome P450 2C9 (Homo sapiens, UniProt P11712); assay: CYP inhibition in human liver microsomes; format: in vitro ADME; details: 10 µM
T2 construct: Corning Cat # 452117); tissue Corning 452117; host or cells: human liver microsomes
Experimental: as §1

[3] = target: T3, cytochrome P450 2D6 (Homo sapiens, UniProt P10635); assay: CYP inhibition in human liver microsomes; format: in vitro ADME; details: 10 µM
T3 construct: Corning Cat # 452117); tissue Corning 452117; host or cells: human liver microsomes
Experimental: as §1

[4] = target: T4, cytochrome P450 3A4 (Homo sapiens, UniProt P08684); assay: CYP inhibition in human liver microsomes; format: in vitro ADME; details: 10 µM
T4 construct: Corning Cat # 452117); tissue Corning 452117; host or cells: human liver microsomes
Experimental: as §1

[5] = test system: Rag2-/-γc-/- mice; assay: Toxicity assay: hematological and liver parameters, liver histology; format: in vivo, mouse; details: for ALT (Counts (U/L)) / AST (Counts (U/L)) / Bilirubin (Counts (mg/dl)) / HDL (Counts (mmol/l)) / LCLC3 (Counts (mmol/l)) / UREA (Counts (mg/dl)) / Hematocrit (Counts (%)) / Hemoglobin (Counts (g/dl)) / PLT (Counts (K/O)) / RBC (Counts (K/O)) / WBC (Counts (K/O)): healthy Rag2-/-γc-/- mice, individual mice, 10 mg/kg; for ALT (Counts (U/L)) / AST (Counts (U/L)) / Bilirubin (Counts (mg/dl)) / HDL (Counts (mmol/l)) / LCLC3 (Counts (mmol/l)) / UREA (Counts (mg/dl)): 10 mg/kg i.p. daily for 3 weeks then 7-day washout; for Hematocrit (Counts (%)) / Hemoglobin (Counts (g/dl)) / PLT (Counts (K/O)) / RBC (Counts (K/O)) / WBC (Counts (K/O)): 10 mg/kg i.p. daily for 3 weeks
Experimental: After treating Rag2^−/−γc^−/− mice with i.p. […] Hematological and liver parameters were measured.
Hematological parameters, including white blood cells, red blood cells, platelet count, hemoglobin and hematocrit, were measured on a Hemavet Hematology Analyzer (Drew Scientific). Liver enzymes (albumin, alkaline phosphatase, aspartate transaminase, alanine transaminase), cholesterol, bilirubin, urea and bile acid levels were analyzed from mice serum using a C311 Cobas Analyzer (Roche Diagnostics).
Mice livers were fixed in paraformaldehyde at 4% for 6–8 h, washed twice with saline solution and stored in 70% ethanol. Samples were included in paraffin, and 3-µm serial sections were cut, deparaffinated, and stained with hematoxylin–eosin.

T3 sequence (P10635 whole entry): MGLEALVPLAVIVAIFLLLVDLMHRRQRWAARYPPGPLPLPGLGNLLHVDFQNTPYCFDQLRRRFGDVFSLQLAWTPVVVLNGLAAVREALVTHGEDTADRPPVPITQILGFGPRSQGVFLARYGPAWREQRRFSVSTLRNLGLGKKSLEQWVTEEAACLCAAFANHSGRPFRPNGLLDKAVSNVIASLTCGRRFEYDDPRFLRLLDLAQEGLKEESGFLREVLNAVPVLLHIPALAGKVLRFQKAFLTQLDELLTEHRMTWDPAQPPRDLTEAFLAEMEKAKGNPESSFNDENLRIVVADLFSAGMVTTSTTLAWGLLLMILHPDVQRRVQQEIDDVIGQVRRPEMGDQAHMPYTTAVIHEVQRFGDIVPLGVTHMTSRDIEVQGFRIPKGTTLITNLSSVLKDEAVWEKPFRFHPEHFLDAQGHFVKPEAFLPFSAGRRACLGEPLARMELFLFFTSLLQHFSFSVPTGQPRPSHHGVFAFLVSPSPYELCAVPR
T2 sequence (P11712 whole entry): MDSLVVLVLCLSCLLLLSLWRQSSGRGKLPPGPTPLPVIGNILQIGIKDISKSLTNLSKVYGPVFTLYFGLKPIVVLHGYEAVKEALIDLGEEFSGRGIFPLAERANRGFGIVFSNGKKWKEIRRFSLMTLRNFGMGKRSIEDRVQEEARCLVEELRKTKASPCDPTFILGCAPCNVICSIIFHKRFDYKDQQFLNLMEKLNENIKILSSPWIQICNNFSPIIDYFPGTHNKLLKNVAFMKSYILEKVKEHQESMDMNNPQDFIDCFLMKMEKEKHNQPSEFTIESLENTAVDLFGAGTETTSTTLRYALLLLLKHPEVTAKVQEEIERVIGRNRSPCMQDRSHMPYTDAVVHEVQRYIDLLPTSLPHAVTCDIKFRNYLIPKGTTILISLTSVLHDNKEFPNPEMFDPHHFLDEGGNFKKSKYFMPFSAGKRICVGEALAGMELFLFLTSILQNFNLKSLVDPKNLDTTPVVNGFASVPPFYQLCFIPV
T4 sequence (P08684 whole entry): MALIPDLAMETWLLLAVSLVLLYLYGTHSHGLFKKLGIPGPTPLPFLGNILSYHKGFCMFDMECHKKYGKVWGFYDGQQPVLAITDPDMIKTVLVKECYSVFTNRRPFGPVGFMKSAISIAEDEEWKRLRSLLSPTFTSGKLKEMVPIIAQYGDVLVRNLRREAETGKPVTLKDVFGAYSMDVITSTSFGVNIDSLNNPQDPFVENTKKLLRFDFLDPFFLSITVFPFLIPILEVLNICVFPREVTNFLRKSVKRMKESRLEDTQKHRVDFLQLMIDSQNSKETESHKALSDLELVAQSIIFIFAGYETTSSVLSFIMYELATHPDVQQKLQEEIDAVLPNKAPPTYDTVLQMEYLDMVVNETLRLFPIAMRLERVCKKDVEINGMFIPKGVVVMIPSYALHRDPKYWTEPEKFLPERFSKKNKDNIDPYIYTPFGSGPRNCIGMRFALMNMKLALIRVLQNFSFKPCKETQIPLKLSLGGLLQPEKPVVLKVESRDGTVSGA
T1 sequence (P33261 whole entry): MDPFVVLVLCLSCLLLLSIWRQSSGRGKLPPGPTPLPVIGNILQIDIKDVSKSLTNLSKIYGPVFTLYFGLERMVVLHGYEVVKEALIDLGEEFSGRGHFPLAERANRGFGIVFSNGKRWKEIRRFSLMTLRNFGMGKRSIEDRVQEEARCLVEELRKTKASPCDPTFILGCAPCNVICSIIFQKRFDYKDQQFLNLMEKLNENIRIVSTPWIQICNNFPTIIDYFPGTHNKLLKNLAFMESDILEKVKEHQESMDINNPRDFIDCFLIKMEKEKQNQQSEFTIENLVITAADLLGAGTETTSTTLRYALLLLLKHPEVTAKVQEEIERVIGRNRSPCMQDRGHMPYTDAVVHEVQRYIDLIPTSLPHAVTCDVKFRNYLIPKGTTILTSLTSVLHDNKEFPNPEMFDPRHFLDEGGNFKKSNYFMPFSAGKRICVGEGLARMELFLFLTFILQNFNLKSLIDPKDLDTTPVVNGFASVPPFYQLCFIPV

With COc1cc2nc(-c3ccc(C)o3)cc(NCC3CCN(c4ncc(C(=O)NO)cn4)CC3)c2cc1OC [CM-444, 2-[4-[[[6,7-dimethoxy-2-(5-methyl-2-furyl)-4-quinolyl]amino]methyl]-1-piperidyl]pyrimidine-5-carbohydroxamic acid] the “P450S Inhibition (2C19)” value [1] was 5.6%, the “P450S Inhibition (2C9)” value [2] was 0% and the “P450S Inhibition (2D6)” value [3] was 10.8%. For the same compound, the “P450S Inhibition (3A4)” value [4] was 50.8%, the tolerability ([5]; 10 mg/kg i.p. daily over 3 weeks, 1-week washout, Rag2-/-γc-/- mice) was “well tolerated” and the “ALT (Counts (U/L))” value ([5]; Week 3) was 11.5 U/L and 2 U/L and 10.5 U/L. The “AST (Counts (U/L))” value ([5]; Week 3) was 32 U/L and 193 U/L and 55.5 U/L and 92 U/L, the “Bilirubin (Counts (mg/dl))” value ([5]; Week 3) was 0 mg/dl (2×) and 0.15 mg/dl and 0.05 mg/dl and the “HDL (Counts (mmol/l))” value ([5]; Week 3) was 1.85 mmol/l (2×) and 0.7 mmol/l and 2.75 mmol/l. For the same compound, the “LCLC3 (Counts (mmol/l))” value ([5]; Week 3) was 0.15 mmol/l and 0.25 mmol/l (2×) and 0.1 mmol/l, the “UREA (Counts (mg/dl))” value ([5]; Week 3) was 11.5 mg/dL and 19.7 mg/dL and 22.3 mg/dL and 21.65 mg/dL and the “ALT (Counts (U/L))” value ([5]; Week 4) was 19.5 U/L and 11.7 U/L and 32.4 U/L and 21 U/L. The “AST (Counts (U/L))” value ([5]; Week 4) was 128.4 U/L and 47.1 U/L and 73.2 U/L and 160.2 U/L, the “Bilirubin (Counts (mg/dl))” value ([5]; Week 4) was 0.09 mg/dl (2×) and 0.06 mg/dl and 0.12 mg/dl and the “HDL (Counts (mmol/l))” value ([5]; Week 4) was 2.61 mmol/l (2×) and 2.16 mmol/l and 2.58 mmol/l. The “LCLC3 (Counts (mmol/l))” value ([5]; Week 4) was 0.3 mmol/l and 0.21 mmol/l (2×) and 0.24 mmol/l, the “UREA (Counts (mg/dl))” value ([5]; Week 4) was 27.78 mg/dL and 27.48 mg/dL and 30.3 mg/dL and 24.12 mg/dL and the “Hematocrit (Counts (%))” value ([5]; 7d Washout) was 52.1% and 56.9% and 53.3% and 53.1%. The “Hemoglobin (Counts (g/dl))” value ([5]; 7d Washout) was 17.9 g/dL and 18 g/dL and 17.7 g/dL and 17.4 g/dL, the “PLT (Counts (K/O))” value ([5]; 7d Washout) was 1470 K/O and 1489 K/O and 1608 K/O and 1482 K/O and the “RBC (Counts (K/O))” value ([5]; 7d Washout) was 10.26 K/O and 10.79 K/O and 10.39 K/O and 10.19 K/O. For the same compound, the “WBC (Counts (K/O))” value ([5]; 7d Washout) was 5.36 K/O and 7.2 K/O and 1.48 K/O and 3.02 K/O, the “Hematocrit (Counts (%))” value ([5]; Week 1) was 47.7% and 44.8% and 42.1% and 46% and the “Hemoglobin (Counts (g/dl))” value ([5]; Week 1) was 18 g/dL and 18.2 g/dL and 17.7 g/dL and 17.8 g/dL. The “PLT (Counts (K/O))” value ([5]; Week 1) was 906 K/O and 830 K/O and 622 K/O and 877 K/O, the “RBC (Counts (K/O))” value ([5]; Week 1) was 10.04 K/O and 9.45 K/O and 9.05 K/O and 9.73 K/O and the “WBC (Counts (K/O))” value ([5]; Week 1) was 3.7 K/O and 3.24 K/O and 5.4 K/O and 2.32 K/O. For the same compound, the “Hematocrit (Counts (%))” value ([5]; Week 2) was 50.2% and 53.9% and 53.4% and 41.4%, the “Hemoglobin (Counts (g/dl))” value ([5]; Week 2) was 17.9 g/dL and 18.4 g/dL and 17.5 g/dL and 15.1 g/dL and the “PLT (Counts (K/O))” value ([5]; Week 2) was 1887 K/O and 1805 K/O and 1778 K/O and 1467 K/O. The “RBC (Counts (K/O))” value ([5]; Week 2) was 10.43 K/O and 10.72 K/O and 10.28 K/O and 8.62 K/O, the “WBC (Counts (K/O))” value ([5]; Week 2) was 5.84 K/O and 4.8 K/O and 3.6 K/O and 7.26 K/O and the “Hematocrit (Counts (%))” value ([5]; Week 3) was 43.7% and 49.1% and 49.8% and 51%. The “Hemoglobin (Counts (g/dl))” value ([5]; Week 3) was 11.4 g/dL and 17.4 g/dL and 17.9 g/dL and 18.3 g/dL, the “PLT (Counts (K/O))” value ([5]; Week 3) was 730 K/O and 1171 K/O and 1358 K/O and 1362 K/O and the “RBC (Counts (K/O))” value ([5]; Week 3) was 8.57 K/O and 10.02 K/O and 10.36 K/O and 10.9 K/O. The “WBC (Counts (K/O))” value ([5]; Week 3) was 1.16 K/O and 8.64 K/O and 6.22 K/O and 6.1 K/O.
